Measurements: patent US12415785B2, “Compound modulators of sting” (CTXT PTY LTD, priority 2019, dated 2025)
Like-named read-outs stand apart in the source and are kept apart here.

Experiments:
[1] = tested on: human STING (HAQ); experiment: Differential scanning fluorimetry (DSF), huSTING (HAQ); type: binding; conditions: 2 μM protein, compound 100 μM; Tm with ligand minus Tm of protein alone (1% DMSO)
Method: (§1) Biophysical experiments were performed with three different recombinant human STING protein variants designated according to allelic nomenclature of Yi et al., (2013). […] These were ligated into a modified pET43a E. coli expression vector designed to encode N-terminal His tag followed by tobacco etch virus protease (TEV) cleavage site and a STING gene sequence. The resulting protein sequences for the three allelic variants are listed below: […] Cultures were then cooled to 16° C. and protein expression induced by the addition of isopropyl β-D-1-thiogalactopyranoside to a final concentration of 0.5 mM and the cultures shaken overnight for further 16 hours. Following expression, cell cultures were centrifuged at 5000×g for 20 min and cell pellet stored frozen at −70° C. Protein purification was initiated by thawing the cell pellet in Lysis buffer (25 mM Tris-HCl pH 8.0, 300 mM NaCl, 5 mM DTT, 2 mM MgCl2, 10 mM imidazole, 0.5 mg/ml lysozyme, benzonase endonuclease [EMD Millipore], 1 mM PMSF, complete protease inhibitor tablets EDTA-free [Roche]) using a ratio of 7 ml of buffer per 1 g of cells. Cells were further lysed by 3 passes through an ice cooled Avestin C5 cell crusher and then centrifuged at 48,000×g at 4° C. […] The IMAC column was then sequentially washed with IMAC Wash buffer 1 and IMAC Wash buffer 2 (25 mM Tris-HCl pH 8.0, 300 mM NaCl, 5 mM DTT, 20 mM Imidazole) and bound His-TEV-hSTING protein eluted with IMAC Elution buffer (25 mM Tris-HCl pH 8.0, 300 mM NaCl, 5 mM DTT, 250 mM Imidazole). […] Differential scanning fluorimetry (DSF) is a rapid screening method for identifying low-molecular-weight ligands that bind and, in doing so, stabilize (or sometimes destabilize) purified proteins (Niesen 2007). DSF monitors thermal unfolding of protein in the presence of a fluorescent dye and is typically performed using a real-time PCR instrument. The temperature at which a protein unfolds is measured by an increase in the fluorescence of a dye with affinity for hydrophobic parts of the protein that are gradually being exposed during unfolding. The fluorescence of the dye is quenched in aqueous environments, but when the dye associates with hydrophobic sites on unfolded protein, its fluorescence increases. The fluorescence intensity is plotted as a function of the temperature, generating a sigmoidal curve that can be described by a two-state transition. The inflection point of the transition curve (Tm) is calculated using simple equations such as that of Boltzmann. Thermal stability of STING protein (with and without bound ligand) was measured using previously described methodology (Seabrook & Newman, 2013), with samples tested in triplicate using 96-well PCR microplate (AB Gene, ABGAB-0600/W). […] Sealed plates were placed into Bio-Rad CFX96/C1000 thermocycler and FRET scanning mode (λ^excitation of 490 nm and reads at a λ^emission of 570 nm). Melting curves were recorded from 20° C. to 100° C. in 0.5° C. increments every 30 seconds with a read at each increment. Data were analysed using “Meltdown analysis” protocol described by Rosa (2015).

[2] = molecular target: human STING (WT) (Homo sapiens (Human), UniProt Q86WV6, H232R); experiment: Differential scanning fluorimetry (DSF), huSTING (WT); type: binding; conditions: for ΔTm at 100 µM: read-out: DSF huSTING (WT) ΔTm (° C.)
Method: as §1

[3] = molecular target: WT human STING isoform (THP-1-Dual KI-hSTING-R232 cells) (Homo sapiens (Human), UniProt Q86WV6, H232R); experiment: THP-1-Dual KI-hSTING-R232 reporter cell line assay; type: cell-based; conditions: 24 h incubation, QUANTI-Luc luminescence
Method: (§2) THP-1 STING Lucia ISG cells (InvivoGen #thpI-isg) were cultured in RPMI-1640 containing 2 mM L-glutamine, 25 mM HEPES, 100 μg/mL Normocin (InvivoGen) and 10% heat-inactivated FBS. Cells were seeded at a density of 7×10^5 cells/mL, maintained at 37° C./5% CO2, and passaged every 3-4 days. Selection pressure was maintained by the addition of 100 μg/mL Zeocin every second passage.
(§3) Assay conditions: cells were harvested and resuspended at a concentration of 5×10^5 cells/mL in fresh growth media. Of this cell preparation 20 μL per well was dispensed into 384 well cell culture plates (Greiner, #781098X) and incubated at 37° C./5% CO2 for 2 hours. Concentration Response Curves (commonly 11 doses) were prepared by 2.5 fold serial dilution starting from 10 mM compound stock solution in DMSO. Compound dilutions were transferred into the cell culture plates using a pintool (0.1 μL transfer), control wells were matched for DMSO. Positive control wells received ML RR—S2 CDA (Med Chem Express HY12885B) in 5 μL of media to a final concentration of 40 μM. All other wells received additional 5 μL of media only to equalise volume. The plates were incubated for 24 h at 37° C./5% CO2.
(§4) For the detection step, QUANTI-Luc (InvivoGen #rep-qlc1) was prepared according to manufacturer's instruction and 10 μL were added per well to the culture plates. Plates were shaken for ten seconds on an orbital shaker and left in the dark at room temperature for two minutes, before luminescence was read on a Perkin Elmer Envision plate reader.
(§5) Data analysis: Luminescence raw data was normalised % activity relative to the signal of the positive control wells and negative control wells which were not treated with compound. The following formula was used to calculate normalised % activity from raw signals: % activity=(sample−negative)/(positive−negative)
(§6) The THP-1 STING Lucia ISG cell EC50 provides an assessment of activity at the human HAQ isoform of STING. For assessing compound activity against the WT human STING isoform, an equivalent method was conducted where the cells used were THP-1-Dual KI-hSTING-R232 (InvivoGen #thpd-r232).

[4] = molecular target: human HAQ isoform of STING (THP-1 STING Lucia ISG cells) (Homo sapiens (Human), UniProt Q86WV6, G230A/H232R/R293Q/R71H); experiment: THP-1 STING Lucia ISG reporter cell line assay; type: cell-based; conditions: 24 h incubation, QUANTI-Luc luminescence
Method: as §2, §3, §4, §5, §6

[5] = molecular target: human STING (HAQ) (Homo sapiens, UniProt Q86WV6, G230A/H232R/R293Q); experiment: Differential scanning fluorimetry (DSF), huSTING (HAQ); type: binding; conditions: read-out: DSF huSTING (HAQ) ΔTm (° C.)
Method: as §1

[6] = 2 μM protein, compound 100 μM, Tm with ligand minus Tm of protein alone (1% DMSO)

Sequence of WT human STING isoform (THP-1-Dual KI-hSTING-R232 cells) (Q86WV6 whole entry H232R, canonical isoform): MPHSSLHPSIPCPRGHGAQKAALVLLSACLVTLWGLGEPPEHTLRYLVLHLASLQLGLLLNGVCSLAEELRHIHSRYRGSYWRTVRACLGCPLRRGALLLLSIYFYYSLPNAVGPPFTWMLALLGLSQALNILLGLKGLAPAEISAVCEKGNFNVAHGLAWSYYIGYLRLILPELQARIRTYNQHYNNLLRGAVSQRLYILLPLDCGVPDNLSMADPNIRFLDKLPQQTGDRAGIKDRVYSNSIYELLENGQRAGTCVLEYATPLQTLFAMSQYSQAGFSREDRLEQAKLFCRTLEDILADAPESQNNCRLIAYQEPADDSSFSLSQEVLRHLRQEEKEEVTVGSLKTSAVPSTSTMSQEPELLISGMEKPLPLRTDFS
Sequence of human STING (HAQ) (Homo sapiens, UniProt Q86WV6, G230A/H232R/R293Q) (Q86WV6 whole entry G230A/H232R/R293Q, looked up): as the sequence (Q86WV6 whole entry H232R, canonical isoform) above, with G230A, R293Q counted along it
Sequence of human STING (WT) (Q86WV6 other isoform, or with tags, fused parts or gaps, stated change not applied): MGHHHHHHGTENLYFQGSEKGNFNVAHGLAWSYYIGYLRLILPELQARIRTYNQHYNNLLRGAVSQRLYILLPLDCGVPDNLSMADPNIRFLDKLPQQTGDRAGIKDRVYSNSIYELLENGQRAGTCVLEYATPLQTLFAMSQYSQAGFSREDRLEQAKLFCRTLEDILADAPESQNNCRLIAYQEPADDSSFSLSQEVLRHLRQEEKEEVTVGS
Sequence of human HAQ isoform of STING (THP-1 STING Lucia ISG cells) (Q86WV6 whole entry R71H/G230A/H232R/R293Q, canonical isoform): as the sequence (Q86WV6 whole entry H232R, canonical isoform) above, with R71H, G230A, R293Q counted along it

| SMILES | DSF huSTING (HAQ) ΔTm (° C.) [1] [°C] | DSF huSTING (WT) ΔTm (° C.) [2, 6] [°C] | EC50 [3] [µM] | EC50 [4] [µM] | ΔTm at 100 µM [5, 6] [°C] | ΔTm at 100 µM [2, 6] [°C] | ΔTm at 100 µM [5] [°C] | ΔTm at 100 µM [2] [°C] |
| --- | --- | --- | --- | --- | --- | --- | --- | --- |
| COc1c(C(N)=O)ccc2c1nc(-c1c(I)cccc1C(=O)O)n2CCn1c(-c2c(I)cccc2C(=O)O)nc2c(OC)c(C(N)=O)ccc21 (single isomer, unassigned) [Example 19.2, 2,2′-(Ethane-1,2-diylbis(5-carbamoyl-4-methoxy-1H-benzo[d]imidazole-1,2-diyl))bis(3-iodobenzoic acid)] | 21.66 | 6.58 | 11.7 | 14.9 |  |  |  |  |
| NC(=O)c1ccc2c(c1)nc(-c1c(Br)cccc1C(=O)O)n2CCn1c(-c2c(Br)cccc2C(=O)O)nc2cc(C(N)=O)ccc21 (single isomer, unassigned) [Example 29.2, 2,2′-(Ethane-1,2-diylbis(5-carbamoyl-1H-benzo[d]imidazole-1,2-diyl))bis(3-bromobenzoic acid)] | −5.65 | −6.70 | > 40 | > 40 |  |  |  |  |
| COc1c(C(N)=O)ccc2c1nc(-c1cc(Cl)ccc1C(=O)O)n2CCn1c(-c2cc(Cl)ccc2C(=O)O)nc2c(OC)c(C(N)=O)ccc21 [Example 7, 2,2′-(Ethane-1,2-diylbis(5-carbamoyl-4-methoxy-1H-benzo[d]imidazole-1,2-diyl))bis(4-chlorobenzoic acid)] |  |  | 1.43 | 1.55 | 5.88 | -2.49 |  |  |
| COc1c(C(N)=O)ccc2c1nc(-c1cc(Cl)c(Cl)cc1C(=O)O)n2CCn1c(-c2cc(Cl)c(Cl)cc2C(=O)O)nc2c(OC)c(C(N)=O)ccc21 [Example 8, 6,6′-(Ethane-1,2-diylbis(5-carbamoyl-4-methoxy-1H-benzo[d]imidazole-1,2-diyl))bis(3,4-dichlorobenzoic acid)] |  |  | 0.426 | 0.54 |  |  | 23.2 | 6.38 |
| COc1c(C(N)=O)ccc2c1nc(-c1c(C(=O)O)ccc(Cl)c1F)n2CCn1c(-c2c(C(=O)O)ccc(Cl)c2F)nc2c(OC)c(C(N)=O)ccc21 [Example 12, 2,2′-(Ethane-1,2-diylbis(5-carbamoyl-4-methoxy-1H-benzo[d]imidazole-1,2-diyl))bis(4-chloro-3-fluorobenzoic acid)] |  |  | 2.55 | 2.65 | 28.3 | 4.56 |  |  |
| COC(=O)c1cc(Br)ccc1-c1nc2c(OC)c(C(N)=O)ccc2n1CCn1c(-c2ccc(Br)cc2C(=O)OC)nc2c(OC)c(C(N)=O)ccc21 [Example 13, Dimethyl 6,6′-(ethane-1,2-diylbis(5-carbamoyl-4-methoxy-1H-benzo[d]imidazole-1,2-diyl))bis(3-bromobenzoate)] |  |  | > 40 | > 40 |  |  |  |  |
| COc1c(C(N)=O)ccc2c1nc(-c1ccc(Br)cc1C(=O)O)n2CCn1c(-c2ccc(Br)cc2C(=O)O)nc2c(OC)c(C(N)=O)ccc21 [Example 14, 6,6′-(Ethane-1,2-diylbis(5-carbamoyl-4-methoxy-1H-benzo[d]imidazole-1,2-diyl))bis(3-bromobenzoic acid)] |  |  | 1.99 | 1.31 | 9.15 | 4.74 |  |  |
| COc1c(C(N)=O)ccc2c1nc(-c1ccc(F)cc1C(=O)O)n2CCn1c(-c2ccc(F)cc2C(=O)O)nc2c(OC)c(C(N)=O)ccc21 [Example 27, 6,6′-(Ethane-1,2-diylbis(5-carbamoyl-4-methoxy-1H-benzo[d]imidazole-1,2-diyl))bis(3-fluorobenzoic acid)] |  |  | 10.5 | 11.3 | 6.17 | 2.62 |  |  |
| COc1c(C(N)=O)ccc2c1nc(-c1cc(F)ccc1C(=O)O)n2CCn1c(-c2cc(F)ccc2C(=O)O)nc2c(OC)c(C(N)=O)ccc21 [Example 28, 2,2′-(Ethane-1,2-diylbis(5-carbamoyl-4-methoxy-1H-benzo[d]imidazole-1,2-diyl))bis(4-fluorobenzoic acid)] |  |  | > 40 | 12.6 | -2.19 | -6.6 |  |  |
| NC(=O)c1ccc2c(c1)nc(-c1ccc(Cl)cc1C(=O)O)n2CCn1c(-c2ccc(Cl)cc2C(=O)O)nc2cc(C(N)=O)ccc21 [Example 39, 6,6′-(Ethane-1,2-diylbis(5-carbamoyl-1H-benzo[d]imidazole-1,2-diyl))bis(3-chlorobenzoic acid)] |  |  | > 40 | > 40 | 0.86 | -4.35 |  |  |
| COc1c(C(N)=O)ccc2c1nc(-c1ccc(Cl)cc1-c1nn[nH]n1)n2CCn1c(-c2c(F)cc(Cl)cc2C(=O)O)nc2c(OC)c(C(N)=O)ccc21 [Example 47, 2-(5-Carbamoyl-1-(2-(5-carbamoyl-2-(4-chloro-2-(2H-tetrazol-5-yl)phenyl)-4-methoxy-1H-benzo[d]imidazol-1-yl)ethyl)-4-methoxy-1H-benzo[d]imidazol-2-yl)-5-chloro-3-fluorobenzoic acid] |  |  | 0.549 | 0.497 |  |  |  |  |
| COc1c(C(N)=O)ccc2c1nc(-c1ccc(C#N)cc1C(=O)O)n2CCn1c(-c2ccc(C#N)cc2C(=O)O)nc2c(OC)c(C(N)=O)ccc21 [Example 51, 2-(5-Carbamoyl-1-(2-(5-carbamoyl-2-(2-carboxy-4-cyanophenyl)-4-methoxy-1H-benzo[d]imidazol-1-yl)ethyl)-4-methoxy-1H-benzo[d]imidazol-2-yl)-5-cyanobenzoic acid] |  |  |  |  | 1.6 | -0.85 |  |  |
